Data on 80 molecules can be found in the METLIN SMRT retention time set (Domingo-Almenara et al. 2019).

This data set in a line: gradient 5% acetonitrile 3 min, to 50% in 2 min, to 85% in 15 min, held 3 min, 100 µL/min. To be noted: column: Zorbax Extend-C18 2.1 x 50 mm; eluents: water / acetonitrile, 0.1% formic acid. The procedure, abridged:
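Retention times of pure standards were taken from adduct peaks that were selected by computer and manually inspected. Over 3 months, mixtures of ~100 molecules were run by HPLC–quadrupole time-of-flight mass spectrometry in positive and negative ionization mode. The Zorbax Extend-C18 column (2.1 × 50 mm, 1.8 μm) ran at 100 μL/min in water and acetonitrile, each containing 0.1% formic acid, with 40 μL dead volume and 900 μL dwell volume.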
`COc1cccc(-n2ccc(=O)c(-c3nc(-c4ccc(OC)c(OC)c4)no3)n2)c1` showed an RP-LC retention time of 817 s.
The same measure for `CNC(=O)NC1CCN(c2nc3cccnc3n(Cc3ccccc3)c2=O)CC1`: 801 s; for `O=C1COc2ccc(S(=O)(=O)N3CCCC3C(=O)NCc3ccccc3Cl)cc2N1` (stereo not given): 784 s; for `CCN(CC)C(=O)N1CCC(c2noc(COc3ccc(F)cc3)n2)C1` (stereo not given): 553 s.
For `Cc1cnn(CCC(=O)N2CC(n3cc(COc4ccc(F)cc4)nn3)C2)c1`, the RP-LC retention time came out at 712 s.
The same measure for `CCn1ncc(Cl)c1C(=O)N1CCCC1c1ccccc1F` (stereo not given): 922 s; for `Cc1ccc(NC(=O)CSc2nnc3c4cc(-c5ccc(F)cc5)nn4ccn23)cc1Cl`: 1010 s; for `CCCNC(=O)Cn1cc(C(=O)Nc2ccc(Cl)cc2)c(=O)c2ccc(C)nc21`: 962 s.
For `O=C(Nc1nnc(C2CC(=O)N(c3ccc(F)cc3)C2)o1)c1ccccc1` (stereo not given) the value was 711 s; for `COc1ccccc1Nc1nc(-c2ccc(C)cc2)c(C)s1`, 1210 s; for `CCn1cnnc1C1CCCCN1C(=O)Cc1c[nH]c2ccccc12` (stereo not given), 649 s.
Regarding `O=C(NCc1ccc(F)cc1)C1CCN(C(=O)c2ncn3c2COC(c2ccc(F)cc2)C3)CC1` (stereo not given), the RP-LC retention time was found to be 784 s.
For `O=C(Nc1ccc2c(c1)OCO2)C(=O)c1cccn1Cc1ccccc1` the value was 986 s; for `Cc1cc(C(=O)NCCN2CCOCC2)c2cc(Br)ccc2n1`, 582 s.
For `CCC(C)N(CC(=O)N1CCc2sccc2C1COc1cccc(F)c1)C(C)=O` (stereo not given) the value was 754 s; for `Clc1cccc2sc(NCC3CCCO3)nc12` (stereo not given), 811 s; for `COCCCNC(=O)C1c2ccccc2CC(=O)N1C(C)C` (stereo not given), 651 s.
In turn, `O=C(Nc1cc(-c2ccccn2)no1)c1cccc(Cl)c1` registered an RP-LC retention time of 870 s.
`CN(CCNC(=O)CN(c1ccccc1)S(=O)(=O)N(C)C)Cc1ccccc1` came in with an RP-LC retention time of 656 s.
For `O=C(CN1C(=O)C2CCCCN2c2ccc(C(=O)N3CCCC3)cc21)NCc1ccco1` (stereo not given) the value was 724 s; for `Cc1nn(CC(=O)NCCN2CCOCC2)c(=O)c2c(-n3cccc3)n(-c3ccc(Cl)cc3)nc12`, 704 s.
The same measure for `Cc1ccc(CNC2=NCCNC23CCN(S(=O)(=O)c2ccc(C)cc2)CC3)cc1`: 736 s; for `COc1cccc(N2CCN(S(=O)(=O)c3cc(-c4csc(C)n4)ccc3C)CC2)c1`: 1190 s; for `NS(=O)(=O)c1ccc(CCNC(=O)c2ccc(=O)[nH]n2)cc1`: 542 s.
The same measure for `Cc1cnc(-c2ccccc2)n1C1CN(S(=O)(=O)c2cccs2)C1`: 653 s; for `O=C(Nc1ccccc1-c1nc2ccccc2[nH]1)C1CC1`: 623 s; for `Cc1ccc(-n2nc(N3CCCN(C(=O)c4n[nH]c5c4CCCC5)CC3)ccc2=O)cc1`: 679 s.
Turning to `CCn1cc(-c2nc(CC(=O)Nc3ccc(F)cc3F)cs2)c2cccnc21`, the RP-LC retention time was determined as 992 s.
For `CC(=O)c1cccc(NS(=O)(=O)c2ccc(F)c(Cl)c2)c1` the value was 839 s; for `COc1cccc(CNC(=O)C2(C)CCCN(C(=O)Nc3ccccc3Br)C2)c1` (stereo not given), 942 s.
The same measure for `COCCn1cc2c3c(cccc31)CN(C(=O)Nc1ccc(OC)c(F)c1)CC2`: 891 s; for `Cc1occc1C(=O)Nc1nc(-c2ccc(C(C)(C)C)cc2)cs1`: 1300 s.
For `CC(C)(C)c1ccc(C(=O)NCCCn2ncccc2=O)cc1` the value was 731 s.
In the case of `Cc1ccc(NC(=O)c2cccc3c2SCCC3=O)nc1`, the RP-LC retention time came to 726 s.
For `Cc1ccc(NS(=O)(=O)c2cccnc2Nc2ccc(Cl)cc2)cc1` the value was 1170 s; for `Fc1ccccc1CN1CCCN(c2ncccc2-c2nc(C3CC3)no2)CC1`, 675 s.
For `Cc1ccccc1OCC(=O)Nc1cc2c(cc1Oc1ccccc1)n(C)c(=O)c(=O)n2C` the value was 939 s.
The same measure for `COCCNC(=O)Cn1c(=O)n(-c2ccc(C)cc2)c2ncccc21`: 656 s; for `CCCn1ccc2sc(C)c(C(=O)NC3CC3)c2c1=O`: 679 s; for `CCC(C(=O)N1CCN(c2cc(C)n3c(C)nnc3n2)CC1)c1ccccc1` (stereo not given): 650 s.
For the molecule `Cc1ccc(CNC(=O)C2CCN(c3cncnc3N3CCOCC3)CC2)o1`, the RP-LC retention time was 605 s.
For `Cc1oc(-c2[nH]ncc2C(=O)N(C)C)cc1S(=O)(=O)Nc1ccccc1` the value was 609 s; for `Cn1c2c(c3ccccc31)C(C(=O)NCc1ccc(F)cc1)N(Cc1cccnc1)C(=O)CS2` (stereo not given), 703 s.
For `CN(C)CCNc1nnc(-c2nc(-c3ccc(F)cc3)no2)c2ccccc12` the value was 687 s; for `COC(=O)c1ccccc1Nc1c(-c2ccc(C)cc2)nc2cnccn12`, 875 s.
For `CCc1nc(-c2csc(S(=O)(=O)N3CCCC(C(=O)Nc4cccc(Cl)c4)C3)c2)no1` (stereo not given) the value was 1040 s.
On to `Cc1nnc(-c2ccc3ccn(CC(=O)NC4CCCC4)c3c2)o1`, for which the RP-LC retention time came to 740 s.
The same measure for `COCCNC(=O)CSc1cn(CC(=O)N2CC(C)OC(C)C2)c2ccccc12` (stereo not given): 709 s; for `COc1ccc(C2(C(=O)NCc3nn(C)c4c3CN(C)CC4)CC2)cc1`: 865 s; for `COc1ccccc1CNC(=O)CN1CCc2[nH]c3c(C)c(Cl)ccc3c(=O)c2C1`: 649 s.
For `O=C(Nc1ccc2c(c1)OCCO2)N1CCN(c2nc3ccccc3n(Cc3ccccc3)c2=O)CC1` the value was 1010 s; for `CCC(=O)N1CCCn2nc(-c3ccc(F)cc3)cc2C1`, 741 s.
For `COc1ccc(-c2nnc(COc3cccc(NC(=O)c4ccccn4)c3)o2)cc1` the value was 941 s; for `COc1ccc(Nc2ncnc3[nH]ncc23)c(OC)c1`, 568 s; for `COc1ccc(NC(=O)C2CCc3sc(C(=O)N(C)C)cc3C2)cc1` (stereo not given), 663 s.
Regarding `COC(=O)C1=CN(c2cc(C)ccc2OC)c2ccccc2S1(=O)=O`, the RP-LC retention time was 894 s.
The same measure for `Cc1cccc(N2C(=O)CN(S(C)(=O)=O)CC2(C)C(=O)NCc2ccc(Cl)cc2)c1C` (stereo not given): 903 s; for `O=C(NC1CC1)[C@@H]1C[C@H](Oc2ccccc2)CN1S(=O)(=O)c1cccc2nsnc12`: 828 s.
The same measure for `CCOC(=O)c1cnc2nc(C)ccc2c1Nc1ccc(Cl)cc1F`: 758 s; for `COc1ccccc1-c1nc(-c2ccnc(N3CCOCC3)c2)no1`: 812 s.
For `COc1ccc(CCC(=O)N2CCc3cc(-c4csc(C)n4)ccc32)cc1`, the RP-LC retention time is 1060 s.
For `O=C(c1ccsc1)N1CCCCC1c1nncn1Cc1ccccc1` (stereo not given) the value was 726 s; for `CC(C)Cn1cc(S(=O)(=O)Nc2cc(F)ccc2F)c2cccnc21`, 994 s.
The same measure for `CCOc1ccc2c(n1)CCN(C(=O)Nc1ccc(CC)cc1)C2`: 943 s.
For `O=c1c2scc(-c3cccc(F)c3)c2ncn1Cc1cc(=O)n2ccccc2n1` the value was 809 s; for `CCN(CC)C(=O)N1CC(n2cc(C(=O)N(C)CCOC)nn2)C1`, 624 s.
Regarding `COc1cccc(CNC(=O)C2(C)CCCN(C(=O)Nc3ccc(Cl)cc3)C2)c1` (stereo not given), the RP-LC retention time worked out at 942 s.
The same measure for `Cc1ccccc1-c1nc(-c2ccc3nnn(C)c3c2)no1`: 1060 s; for `O=c1n(Cc2cccc(Cl)c2)nc2c(S(=O)(=O)N3CCOCC3)cccn12`: 1320 s; for `CCNc1cc(N2CCCC(CCC(=O)NCCN3CCN(C)CC3)C2)ncn1` (stereo not given): 541 s.
The same measure for `CCn1cnc2ccc(-c3noc(-c4ccc(C)cc4)n3)cc21`: 832 s; for `CC(C)CCNC(=O)c1nnc(-c2ccc(S(=O)(=O)N(C)C)cc2)o1`: 877 s.
The same measure for `COc1ccc(-n2c(=O)n(C)c(=O)c3cc(C(=O)Nc4ccc5c(c4)OCO5)cnc32)cc1`: 841 s.
`CCN1CCN(C(=O)c2csc(N3CCN(c4ccc(OC)cc4)CC3)n2)CC1` came in with an RP-LC retention time of 654 s.
For `Cc1ccc(-c2noc(Cc3nnc(-c4cc(F)cc(F)c4)o3)n2)cc1C` the value was 1170 s; for `COc1ccc(C(=O)Nc2cccn3nc(C)nc23)cc1`, 719 s.
For `Cc1ccc(NC(=O)CCc2nc(CSc3nnc(-c4ccccc4)o3)no2)cc1Cl` the value was 1030 s; for `O=C(Nc1ccc(F)cc1)C1CCCN(S(=O)(=O)c2cc(-c3noc(C4CCC4)n3)cs2)C1` (stereo not given), 1160 s; for `O=C(Nc1ccc(Cl)cc1F)c1cnc(-c2ccccc2)nc1-c1ccncc1`, 982 s.
For `COc1ccc(-c2nnc(CC(=O)NCc3ccccn3)o2)cc1` the value was 588 s.
